PubChem BioAssay AID588764 (Broad Institute, 2011)
Results filed as inconclusive are left out. The source made the active and inactive calls. How the calls were made is not given here.

Biological target: Histone acetyltransferase RTT109 (Candida albicans (strain SC5314 / ATCC MYA-2876)) (UniProt Q5AAJ8)
Assay: C. albicans Rtt109 HAT inhibition curves – biochemical, cherry-picked hits, plate reader, dose response (AID 588764);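 on activity change, negative = inhibition: 0% = neutral control wells and -100% = no enzyme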
Details: Rtt109/Vps75 HAT activity; for activity change, negative = inhibition: at 19.5 µM (top of the series)

Histone acetyltransferase RTT109 (Candida albicans (strain SC5314 / ATCC MYA-2876)), sequence (Q5AAJ8 whole entry, looked up): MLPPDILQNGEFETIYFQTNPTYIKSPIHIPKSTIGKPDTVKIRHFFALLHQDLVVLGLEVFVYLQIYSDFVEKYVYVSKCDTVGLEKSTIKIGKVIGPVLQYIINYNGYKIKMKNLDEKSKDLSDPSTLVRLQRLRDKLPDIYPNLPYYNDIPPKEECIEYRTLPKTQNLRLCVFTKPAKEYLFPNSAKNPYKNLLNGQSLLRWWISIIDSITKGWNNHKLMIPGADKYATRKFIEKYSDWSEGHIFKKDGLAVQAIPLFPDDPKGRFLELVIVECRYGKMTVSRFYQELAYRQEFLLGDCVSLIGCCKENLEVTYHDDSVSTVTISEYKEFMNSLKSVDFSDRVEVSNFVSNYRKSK

SMILES	AC50 [µM]	activity change, negative = inhibition
O=c1c2ccccc2sn1-c1cc(S(=O)(=O)N2CCOCC2)ccc1N1CCOCC1	3.78	
COc1ccc(CCNC(=O)CN2C(=O)NC3(CCCCC3C)C2=O)cc1 (stereo not drawn)		inactive
CN(CC(=O)Nc1ccc(Cl)cc1)C(=O)c1cccc(S(=O)(=O)NCc2ccccc2)c1		inactive
CC[n+]1c(C)sc2c(C)cc(C)cc21		inactive
Nc1nnc(SC2CC(=O)N(c3ccccc3)C2=O)s1 (stereo not drawn)	13.6	
CC1CCCC(NS(=O)(=O)c2cccc3nsnc23)C1C (stereo not drawn)		inactive
CC1CCCCC1N(C)C1CCN(C(=O)CNC(=O)/C=C/c2cccc(Cl)c2)CC1 (stereo not drawn)		inactive
O=C(NCC(=O)N1CCCCC1)c1ccc2ccccc2c1		inactive
COc1ccc(Br)cc1CN(C)C(C)C(=O)Nc1cccc(C(C)=O)c1 (stereo not drawn)		inactive
CC1Cc2ccccc2N1C(=O)COC(=O)c1ccc(O)cc1 (stereo not drawn)		inactive
Fc1ccc(NC(=S)Nc2ccc(Br)cc2)cc1		inactive
COc1ccc(C(=O)C(CCC(CNC(C)(C)C)C(=O)c2ccc(OC)cc2)CNC(C)(C)C)cc1 (stereo not drawn)		inactive
CCOC(=O)/C=C/S(=O)(=O)c1ccc(NC(C)=O)cc1	5.88	
O=C(CCC(=O)OCC(=O)c1ccc([N+](=O)[O-])cc1)Nc1ccccc1Cl	8.57	
COc1ccc(CC(NC(C)=O)C(=O)NC2CCN(c3nc(C)cc(C)c3C#N)CC2)cc1 (stereo not drawn)		inactive
COc1ccccc1CC(=O)N1CCN(S(=O)(=O)c2ccccc2F)CC1		inactive
Cc1ccc(S(=O)(=O)/N=C2\C=C(NS(=O)(=O)c3ccccc3)C(=O)c3ccccc32)cc1		inactive
CCOC(=O)c1c(C)n(-c2ccc(C)cc2)c2ccc(OCC(O)CNCC3CCCO3)cc12 (stereo not drawn)		inactive
CC(=O)Nc1nc(-c2ccccc2)c(-c2ccccc2)o1		inactive
O=c1[nH]c2ccccc2n2c(-c3ccccc3)nnc12	1.98	
CCN1/C(=C/c2ccc3cc(C)cc(C)c3[n+]2CC)Sc2cc(C)ccc21		inactive
CCc1nnc(NC(=O)CN2C(=O)c3ccccc3C2=O)s1		inactive
CC(C)C(C(=O)Nc1cccnc1)N1C(=O)c2ccccc2C1=O (stereo not drawn)		inactive

SMILES	AC50 [µM]	activity change, negative = inhibition
O=C(O)C1CCc2sc3[nH]c(=S)n(-c4ccccc4)c(=O)c3c21 (stereo not drawn)	9.94	
CCOC(=O)c1c(NC(=O)C[n+]2ccc(Cc3ccccc3)cc2)sc(C)c1C		inactive
Cc1cc(Cl)c(S(=O)(=O)N2CCCC2)cc1OCC(N)=O		inactive
COC(=O)c1cccc(N2C(=O)C(Cl)=C(N3CCOCC3)C2=O)c1	15.8	
COc1cccc(-c2ccc(C#N)c(SCC(=O)NCCc3ccc(Cl)cc3)n2)c1		inactive
COC(=O)/C=C\C(=O)Nc1cccc([N+](=O)[O-])c1	5.62	
COCc1ccc(CN2CCC(n3nccc3NC(=O)C(OC)c3ccccc3)CC2)o1 (stereo not drawn)		inactive
O=C(NCCCN1CCN(c2ccccc2F)CC1)C1CCC(=O)N1C1CCCCC1 (stereo not drawn)		inactive
COc1ccc(NC(=O)Nc2nnc(-c3cccs3)s2)cc1		inactive
CCn1c(SCC(=O)Nc2cc(OC)c(OC)c(OC)c2)nnc1-c1cccs1		inactive
CC#CCN(CC#CC)S(=O)(=O)c1ccc(-n2cnnn2)c(OC)c1		inactive
CCOC(=O)c1ccc(N2C(=O)c3n[nH]c(C)c3C2c2ccc(OC)cc2)cc1 (stereo not drawn)		inactive
CC1=C(C)/C(=N\OS(=O)(=O)c2ccc(C)cc2)C=CC1=O	8.6	
Cc1cc(CN2C(=O)c3ccccc3C2=O)no1		inactive
Oc1c(Cl)cc(Cl)c(Cl)c1Cc1c(O)c(Cl)cc(Cl)c1Cl	5.48	
Nc1nc2ccc(S(=O)(=O)N3CCCCC3)cc2s1	19.5	
Clc1ccc(COC(Cn2ccnc2)c2ccc(Cl)cc2Cl)c(Cl)c1 (stereo not drawn)		inactive
Cc1cccc(N2C(S)=C(C#N)C(=O)NC2c2cccs2)c1 (stereo not drawn)	11.7	
Cc1nonc1OCCn1c([N+](=O)[O-])cnc1C		inactive
CN1CCN(S(=O)(=O)c2cccc(C(=O)N(Cc3ccccc3)c3ccccc3)c2)CC1		inactive
O=S(=O)(Nc1ccc(-c2nnc(SCc3ccc(Cl)cc3)o2)cc1)c1ccccc1		inactive
CN(C)S(=O)(=O)n1cc(/C=C(\NC(=O)c2ccccc2)C(=O)N2CCCC2)c2ccccc21		inactive
Cc1ccccc1C(=O)NCCNC(=O)c1ccco1		inactive

SMILES	AC50 [µM]	activity change, negative = inhibition
COc1cc(C2NC(=O)C(C#N)=C(S)N2c2ccccc2)ccc1OC(C)C (stereo not drawn)		inactive
CN(C)CCCN(C(=O)CCOc1ccccc1)c1nc2c(F)cccc2s1		inactive
C#CCOCCOCCOCCNc1nc(N2CCN(C(=O)[C@H](CCCN=C(N)N)n3cc(C(N)[C@@H](C)CC)nn3)CC2)nc(N2CCN(C(=O)[C@H](CCCCN)n3cc([C@@H](N)CC(N)=O)nn3)CC2)n1 (stereo partly drawn)		inactive
Oc1cc2c(cc1O)[C@H]1c3ccc(O)c(O)c3OC[C@@]1(O)C2	7.81	
CCOC(=O)C1CCN(c2ccc([N+](=O)[O-])c(C(C)=O)c2)CC1		inactive
CC1CCN(c2nc(CN3CCCCC3)nc3scc(-c4ccccc4)c23)CC1		inactive
COc1ccc(OC)c(/C=C2\SC(=S)N(C(C(=O)O)c3ccccc3)C2=O)c1 (stereo not drawn)		inactive
COc1ccc(C2CC(=O)C(C=NCCO)=C(O)C2)cc1 (stereo not drawn)		inactive
O=C(Nc1cccc(-c2nc3cccnc3s2)c1)c1cccnc1Cl		inactive
CC(C)c1nnc(NC(=O)CCC(=O)NCc2cccs2)s1		inactive
COc1ccc(CNC(=O)COC(=O)c2ccc(S(=O)(=O)N3CCCCC3)cc2)cc1		inactive
O=C(O)COc1ccccc1O		inactive
O=C(COC(=O)c1cnccn1)c1ccc([N+](=O)[O-])cc1	11.4	
COC(=O)c1cc2c(ccn2-c2ccc(F)cc2)n1CC(=O)C(C)(C)C		inactive
O=C(Nc1ccc2oc(-c3ccncc3)nc2c1)c1ccc2c(c1)OCCO2		inactive
COc1cccc2c1Oc1ncccc1N(C(=O)CCC(=O)NCc1ccc(F)cc1)C2		inactive
CN(C)c1ccc(/C=C/c2cc[n+](C)c3ccccc23)cc1		inactive
COC(=O)c1cccc(-n2sc3ccccc3c2=O)c1	4.38	
O=C(/C=C/Nc1ccc([N+](=O)[O-])cc1Br)c1cccc2ccccc12		inactive
CCOC(=O)C1=C(C)NC(C)=C(C(=O)OCC)C1C(=O)OCC(=O)NCCc1ccc(S(N)(=O)=O)cc1		inactive
N#Cc1c(Nc2ccccc2)s[nH]c1=O	5.84	
Cc1ccc2sc(NNC(=O)C3=COCCO3)nc2c1C		inactive
